From patent US20260007746A1, “COMPOSITIONS AND METHODS FOR TREATMENT OF INFLAMMATORY DISORDERS” (priority 2020, published 2026) come the findings set out here.

The experiment deals with ConA-stimulated splenocytes. The experiment in a line: Mitogen proliferative assay (MSC:splenocyte co-culture, BrdU). Type of experiment: cell-based, mouse. The following applies: mAdMSC:splenocyte 1:20 and 1:10; with or without HA or E-selectin pre-incubation. As for the experimental part: Mitogen proliferative assays were performed as described previously (Yañez et al., 2006; Yanez et al., 2010). Briefly, splenocytes were isolated from C57BL/6 and BALB/c mice spleen cell suspensions by passage through 40-μm nylon cell strainers (Becton Dickinson), followed by red blood lysis with 0.83% ammonium chloride in 0.01 M Tris-HCl buffer pH 7.5 (Sigma-Aldrich). To induce splenocyte proliferation, 1×10^5 splenocytes were resuspended in RPMI 1640 medium (Gibco, Carlsbad, CA, United States) supplemented with 10% FBS (proliferation medium) and treated with 10 μg/ml concanavalin A (ConA) (Sigma-Aldrich). To assess for effect(s) on splenocyte proliferation, MSCs were resuspended in complete medium and seeded in wells together with splenocytes at decreasing ratios of MSC:splenocyte (from 1:1 to 1:100). After 3 days of MSC:splenocyte co-cultures, splenocyte proliferation was measured using an ELISA BrdU colorimetric kit (Roche Diagnostics). In brief, BrdU labeling reagent was added to wells 16 h before determination. Then, cells were fixed, DNA denatured and incubated with an anti-BrdU-POD antibody. After washing and substrate addition, absorbance was measured. In some experiments, UmAdMSCs and FucmAdMSCs, or FuchAdMSCs and FuchBMMSCs, were treated with sialidase from Vibrio cholerae (0.1 U/ml, Roche Diagnostics) to remove terminal sialic acids (i.e., sialUmAdMSCs and sialFucmAdMSCs, or sialFuchAdMSCs and sialFuchBMMSCs). As indicated, mMSCs or hMSCs were cultured for 24 h or 72 h with different concentrations of mE-Ig chimera or of hyaluronic acid (HA, from rooster comb; Sigma-Aldrich) for 24 h or 72 h following described protocols (Burdick et al., 2006; Thankamony and Sackstein, 2011). Briefly, mE-Ig or HA were immobilized on plates. […] In some experiments, cultures of mAdMSCs seeded on E-selectin and/or HA for 72 h were washed, then co-cultured in presence of continuous E-selectin and/or HA with murine splenocytes (at MSC:splenocyte ratio of 1:20) for 72 h in presence of ConA, and splenocyte proliferation was assessed. […]
On to `Cn1cc(CC(N)C(=O)O)c2ccccc21` (racemic) [1-methyl-DL-tryptophan], for which the “proliferation of mitogen-stimulated splenocytes in mAdMSC co-cultures with inhibitor” value (“proliferation … with inhibitor” below) is given as “significantly rescued the proliferation”.
Regarding `CNC(=N)NCCC[C@H](N)C(=O)O` [N^G-monomethyl-L-arginine], the “proliferation … with inhibitor” value was “significantly rescued the proliferation”.
In the case of `NC(=O)c1ccc(-c2nc(-c3ccc4c(c3)OCO4)c(-c3ccccn3)[nH]2)cc1` [SB-431542], the “proliferation … with inhibitor” value is listed as “significantly rescued the proliferation”.
